Measured values from PMC6199744, “Development of Chemical Proteomics for the Folateome and Analysis of the Kinetoplastid Folateome” (ACS Infectious Diseases, 2018).
Like-named read-outs stand apart in the source and are kept apart here.

Legend:
Assay type in all cases: binding
[1] = target: T1, HeLa cell extract proteins (Homo sapiens, UniProt Q93100)
T1 construct: endogenous in cells; host or cells: HeLa cell extract
T1 sequence (Q93100 1-1093): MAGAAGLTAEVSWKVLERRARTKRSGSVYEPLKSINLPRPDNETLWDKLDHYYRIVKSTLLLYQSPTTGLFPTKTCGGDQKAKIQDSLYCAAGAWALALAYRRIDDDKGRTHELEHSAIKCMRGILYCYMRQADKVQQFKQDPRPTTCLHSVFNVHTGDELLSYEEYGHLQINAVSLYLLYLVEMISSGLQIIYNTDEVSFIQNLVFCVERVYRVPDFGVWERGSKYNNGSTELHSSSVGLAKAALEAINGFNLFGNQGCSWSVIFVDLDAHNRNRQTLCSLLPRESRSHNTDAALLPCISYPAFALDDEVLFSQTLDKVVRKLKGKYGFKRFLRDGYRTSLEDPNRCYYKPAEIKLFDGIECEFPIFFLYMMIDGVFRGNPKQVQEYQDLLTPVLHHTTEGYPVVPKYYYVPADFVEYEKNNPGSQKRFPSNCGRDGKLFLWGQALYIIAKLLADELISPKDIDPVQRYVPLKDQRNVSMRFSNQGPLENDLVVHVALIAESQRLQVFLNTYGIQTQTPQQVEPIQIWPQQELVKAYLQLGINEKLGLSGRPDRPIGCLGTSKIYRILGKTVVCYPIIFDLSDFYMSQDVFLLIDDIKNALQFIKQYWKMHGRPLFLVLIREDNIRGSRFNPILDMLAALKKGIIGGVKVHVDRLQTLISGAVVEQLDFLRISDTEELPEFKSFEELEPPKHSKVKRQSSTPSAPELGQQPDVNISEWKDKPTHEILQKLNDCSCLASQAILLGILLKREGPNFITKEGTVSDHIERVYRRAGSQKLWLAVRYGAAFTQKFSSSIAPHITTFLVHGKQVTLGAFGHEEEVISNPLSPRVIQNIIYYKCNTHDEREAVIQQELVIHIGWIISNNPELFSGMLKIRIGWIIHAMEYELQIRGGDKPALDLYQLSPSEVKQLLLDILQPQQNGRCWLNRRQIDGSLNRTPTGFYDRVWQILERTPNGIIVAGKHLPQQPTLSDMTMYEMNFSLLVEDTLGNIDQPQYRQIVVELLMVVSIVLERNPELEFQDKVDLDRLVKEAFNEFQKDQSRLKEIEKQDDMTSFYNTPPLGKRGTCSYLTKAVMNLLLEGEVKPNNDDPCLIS

[2] = target: T2, HeLa cell extract proteins (Homo sapiens, UniProt Q9NU22)
T2 construct: endogenous in cells; host or cells: HeLa cell extract

[3] = target: T3, HeLa cell extract proteins (Homo sapiens, UniProt Q8NFH4)
T3 construct: endogenous in cells; host or cells: HeLa cell extract
T3 sequence (Q8NFH4 1-326): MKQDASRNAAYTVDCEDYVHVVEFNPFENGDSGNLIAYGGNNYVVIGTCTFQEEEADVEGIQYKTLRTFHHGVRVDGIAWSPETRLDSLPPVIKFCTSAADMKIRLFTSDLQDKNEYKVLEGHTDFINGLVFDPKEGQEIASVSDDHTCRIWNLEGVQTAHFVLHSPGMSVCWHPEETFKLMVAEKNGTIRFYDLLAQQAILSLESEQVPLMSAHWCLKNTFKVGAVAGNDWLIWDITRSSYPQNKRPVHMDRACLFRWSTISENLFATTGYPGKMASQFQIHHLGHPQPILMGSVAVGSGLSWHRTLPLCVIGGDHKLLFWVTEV

[4] = target: T4, HeLa cell extract proteins (Homo sapiens, UniProt Q9BQB6)
T4 construct: endogenous in cells; host or cells: HeLa cell extract
T4 sequence (Q9BQB6 whole entry): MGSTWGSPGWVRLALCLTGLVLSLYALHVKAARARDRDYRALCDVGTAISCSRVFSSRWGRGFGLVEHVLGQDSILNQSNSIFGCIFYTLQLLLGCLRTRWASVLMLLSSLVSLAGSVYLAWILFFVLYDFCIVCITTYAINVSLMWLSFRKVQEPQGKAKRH

[5] = target: T5, HeLa cell extract proteins (Homo sapiens, UniProt P40227)
T5 construct: endogenous in cells; host or cells: HeLa cell extract
T5 sequence (P40227 whole entry): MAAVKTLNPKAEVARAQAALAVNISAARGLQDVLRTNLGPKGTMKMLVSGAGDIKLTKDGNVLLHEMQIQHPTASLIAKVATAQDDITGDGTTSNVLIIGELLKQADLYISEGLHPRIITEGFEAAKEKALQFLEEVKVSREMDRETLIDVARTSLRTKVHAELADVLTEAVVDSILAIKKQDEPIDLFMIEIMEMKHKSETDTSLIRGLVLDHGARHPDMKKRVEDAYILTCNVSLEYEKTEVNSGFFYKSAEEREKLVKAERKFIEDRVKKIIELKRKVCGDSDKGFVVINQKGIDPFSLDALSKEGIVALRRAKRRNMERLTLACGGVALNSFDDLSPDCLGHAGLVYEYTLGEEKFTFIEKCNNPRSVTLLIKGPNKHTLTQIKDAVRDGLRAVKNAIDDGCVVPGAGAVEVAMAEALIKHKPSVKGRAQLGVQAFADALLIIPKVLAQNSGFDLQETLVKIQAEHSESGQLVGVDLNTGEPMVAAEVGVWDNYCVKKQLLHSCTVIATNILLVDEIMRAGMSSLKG

[6] = target: T6, HeLa cell extract proteins (Homo sapiens, UniProt Q96EN8)
T6 construct: endogenous in cells; host or cells: HeLa cell extract
T6 sequence (Q96EN8 1-888): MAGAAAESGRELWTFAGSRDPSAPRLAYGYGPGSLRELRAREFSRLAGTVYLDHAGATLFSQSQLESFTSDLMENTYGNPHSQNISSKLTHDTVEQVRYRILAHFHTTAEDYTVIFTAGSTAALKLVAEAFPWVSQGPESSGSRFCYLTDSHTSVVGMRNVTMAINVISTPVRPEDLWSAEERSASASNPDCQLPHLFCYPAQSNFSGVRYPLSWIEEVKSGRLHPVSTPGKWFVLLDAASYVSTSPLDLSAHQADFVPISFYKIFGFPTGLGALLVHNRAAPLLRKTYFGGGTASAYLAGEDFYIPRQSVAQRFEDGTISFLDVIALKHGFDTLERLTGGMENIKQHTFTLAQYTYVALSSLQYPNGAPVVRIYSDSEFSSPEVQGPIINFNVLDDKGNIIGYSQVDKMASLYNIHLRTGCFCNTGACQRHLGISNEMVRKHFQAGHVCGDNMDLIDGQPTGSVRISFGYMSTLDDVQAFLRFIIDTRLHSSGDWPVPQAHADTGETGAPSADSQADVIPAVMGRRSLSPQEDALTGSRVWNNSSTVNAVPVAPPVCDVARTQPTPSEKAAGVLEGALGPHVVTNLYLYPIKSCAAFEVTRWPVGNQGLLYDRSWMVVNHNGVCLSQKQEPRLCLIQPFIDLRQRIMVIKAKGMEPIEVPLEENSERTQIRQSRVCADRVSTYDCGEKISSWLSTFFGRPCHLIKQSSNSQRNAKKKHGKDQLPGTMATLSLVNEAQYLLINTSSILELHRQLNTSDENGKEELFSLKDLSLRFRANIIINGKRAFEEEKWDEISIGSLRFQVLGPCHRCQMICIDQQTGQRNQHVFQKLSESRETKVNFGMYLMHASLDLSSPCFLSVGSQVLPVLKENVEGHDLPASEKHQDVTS

Structure (SMILES)	fold changes relative to vehicle control ([1]; HeLa, protein PHKB)	fold changes relative to vehicle control ([2]; HeLa, protein MDN1)	fold changes relative to vehicle control ([3]; HeLa, protein NUP37)	fold changes relative to vehicle control ([4]; HeLa, protein VKORC1)	fold changes relative to vehicle control ([5]; HeLa, protein CCT6A)	fold changes relative to vehicle control ([6]; HeLa, protein MOCOS)	fold changes relative to vehicle control [1]	fold changes relative to vehicle control [2]	fold changes relative to vehicle control [3]	fold changes relative to vehicle control [4]	fold changes relative to vehicle control [5]	fold changes relative to vehicle control [6]	fold changes relative to vehicle control ([1]; captured protein PHKB, HeLa)	fold changes relative to vehicle control ([2]; captured protein MDN1, HeLa)	fold changes relative to vehicle control ([3]; captured protein NUP37, HeLa)	fold changes relative to vehicle control ([5]; protein CCT6A, HeLa)
Nc1nc2c(c(=O)[nH]1)N(C=O)C(CNc1ccc(C(=O)N[C@@H](CCC(=O)O)C(=O)O)cc1)CN2 (stereo partly drawn) [LEU, leucovorin]	1	0.96	0.86	1.02	1.01	1.07										
Nc1nc2[nH]cc(CCc3ccc(C(=O)N[C@@H](CCC(=O)O)C(=O)O)cc3)c2c(=O)[nH]1 [PTX, pemetrexed]							1.02	0.94	0.91	1.01	1.11	1.01				
CCCCCCOc1ccc(Cc2cnc(N)nc2N)cc1 [compound 1]				0.98		1.03							0.86	0.94	1.14	1.39
CCCCCCOc1cccc(Cc2cnc(N)nc2N)c1 [compound 2]				1.05		1.11							1.09	0.87	0.98	2.04
Nc1nc2cccc(-c3ccccc3)c2n1Cc1ccc(Cl)c(Cl)c1 [compound 3]				1.03		0.96							1.19	1.17	1.01	1.04
NCCOCCOCC(=O)Nc1nc2ncc(CNc3ccc(C(=O)NC(CCC(=O)O)C(=O)O)cc3)nc2c(=O)[nH]1 (stereo not drawn) [compound 6]	1.04	1.12	0.9	1.04	1.19	1.11										
NCCCNc1ccc(C(=O)NC(CCC(=O)O)C(=O)O)cc1 (stereo not drawn) [compound 7]	1.08	1	0.96	1.11	1.31	1.06										
